Assays:
wild oat = experiment: Test B preemergence/postemergence greenhouse plant response rating 0 to 10; type: in vivo, Avena fatua; conditions: 0 to 10 scale
Procedure, shortened: (§1)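 Postemergence treatment of plants two to eighteen cm tall ran alongside preemergence treatment of planted seed, each using compound in a non-phytotoxic solvent.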

barley = experiment: Test C preemergence/postemergence greenhouse plant response rating 0 to 100; type: in vivo, Hordeum vulgare; conditions: POSTEMERGENCE; for Plant response rating Barley Igri: 0 to 100 scale
Procedure, shortened: (§2)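 Compounds in non-phytotoxic solvent applied preemergence to sandy loam one day after planting, postemergence at the 1–4 leaf stage, or to ~2.5 cm floodwater over silt loam.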

morningglory [1] = experiment: as above; type: in vivo, Ipomoea hederacea; conditions: POSTEMERGENCE; for Plant response rating, Morningglory: 0 to 100 scale
Procedure, shortened: as §2

soybean [2] = experiment: as above; type: in vivo, Glycine max; conditions: POSTEMERGENCE; for Plant response rating, Soybean: 0 to 100 scale
Procedure, shortened: as §2

wheat = experiment: Test B preemergence/postemergence greenhouse plant response rating 0 to 10; type: in vivo, Triticum aestivum; conditions: 0 to 10 scale
Procedure, shortened: as §1

chickweed [3] = experiment: Test C preemergence/postemergence greenhouse plant response rating 0 to 100; type: in vivo, Stellaria media; conditions: POSTEMERGENCE; for Plant response rating, Chickweed: 0 to 100 scale
Procedure, shortened: as §2

umbrella sedge = experiment: Test C flood test plant response rating 0 to 100; type: in vivo, Cyperus difformis; conditions: for Plant response rating Umbrella sedge: flood test species listed under POSTEMERGENCE, 0 to 100 scale
Procedure, shortened: as §2

sorghum = experiment: Test B preemergence/postemergence greenhouse plant response rating 0 to 10; type: in vivo, Sorghum bicolor; conditions: 0 to 10 scale
Procedure, shortened: as §1

downy brome = experiment: Test C preemergence/postemergence greenhouse plant response rating 0 to 100; type: in vivo, Bromus tectorum; conditions: POSTEMERGENCE; for Plant response rating Downy Brome: 0 to 100 scale
Procedure, shortened: as §2

rape = experiment: Test B preemergence/postemergence greenhouse plant response rating 0 to 10; type: in vivo, Brassica napus; conditions: 0 to 10 scale
Procedure, shortened: as §1

bedstraw = experiment: Test C preemergence/postemergence greenhouse plant response rating 0 to 100; type: in vivo, Galium aparine; conditions: POSTEMERGENCE; for Plant response rating, Bedstraw: 0 to 100 scale
Procedure, shortened: as §2

soybean [4] = experiment: Test B preemergence/postemergence greenhouse plant response rating 0 to 10; type: in vivo, Glycine max; conditions: 0 to 10 scale
Procedure, shortened: as §1

chickweed [5] = experiment: as above; type: in vivo, Stellaria media; conditions: 0 to 10 scale
Procedure, shortened: as §1

wild buckwheat = experiment: Test C preemergence/postemergence greenhouse plant response rating 0 to 100; type: in vivo, Polygonum convolvulus; conditions: POSTEMERGENCE; for Plant response rating, Wild buckwheat: 0 to 100 scale
Procedure, shortened: as §2

corn = experiment: Test B preemergence/postemergence greenhouse plant response rating 0 to 10; type: in vivo, Zea mays; conditions: 0 to 10 scale
Procedure, shortened: as §1

morningglory [6] = experiment: as above; type: in vivo, Ipomoea hederacea; conditions: 0 to 10 scale
Procedure, shortened: as §1

crabgrass = experiment: as above; type: in vivo, Digitaria spp.; conditions: 0 to 10 scale
Procedure, shortened: as §1

purple nutsedge = experiment: as above; type: in vivo, Cyperus rotundus; conditions: 0 to 10 scale
Procedure, shortened: as §1

Fc1cc(Cl)c(OCCCl)cc1-c1nn2c(c1Cl)CCCC2 [Compound 49]
40: Plant response rating Barley Igri (barley; 62 g/ha) | Plant response rating (0 to 100), Morningglory (morningglory [1]; Rate 4 g/ha) | Plant response rating (0 to 100), Soybean (soybean [2]; Rate 4 g/ha) | Plant response rating (0 to 100), Umbrella sedge (umbrella sedge; POSTEMERGENCE section, flood test, Rate 4 g/ha) | Plant response rating (0 to 100), Downy Brome (downy brome; Rate 16 g/ha)
100: Plant response rating, Morningglory (morningglory [1]; 62 g/ha) | Plant response rating, Morningglory (morningglory [1]; 250 g/ha) | Plant response rating, Bedstraw (bedstraw; 250 g/ha) | Plant response rating, Wild buckwheat (wild buckwheat; 62 g/ha) | Plant response rating, Wild buckwheat (wild buckwheat; 250 g/ha) | Plant response rating (0 to 100), Wild buckwheat (wild buckwheat; Rate 4 g/ha) | Plant response rating (0 to 100), Wild buckwheat (wild buckwheat; Rate 16 g/ha)
9: Plant response rating, Chickweed (chickweed [5]; POSTEMERGENCE, Rate 200 g/ha)
30: Plant response rating (0 to 100), Downy Brome (downy brome; Rate 4 g/ha)
20: Plant response rating (0 to 100), Barley Igri (barley; Rate 16 g/ha) | Plant response rating (0 to 100), Chickweed (chickweed [3]; Rate 4 g/ha) | Plant response rating (0 to 100), Bedstraw (bedstraw; Rate 4 g/ha)
2: Plant response rating, Wheat (wheat; Rate 200 g/ha, PREEMERGENCE) | Plant response rating, Corn (corn; Rate 200 g/ha, PREEMERGENCE) | Plant response rating, Nutsedge (purple nutsedge; POSTEMERGENCE, Rate 50 g/ha)
3: Plant response rating, Wild oat (wild oat; POSTEMERGENCE, Rate 50 g/ha) | Plant response rating, Sorghum (sorghum; POSTEMERGENCE, Rate 50 g/ha) | Plant response rating, Soybean (soybean [4]; Rate 200 g/ha, PREEMERGENCE) | Plant response rating, Corn (corn; POSTEMERGENCE, Rate 50 g/ha)
7: Plant response rating, Rape (rape; POSTEMERGENCE, Rate 50 g/ha) | Plant response rating, Chickweed (chickweed [5]; POSTEMERGENCE, Rate 50 g/ha)
90: Plant response rating Umbrella sedge (umbrella sedge; 62 g/ha)
5: Plant response rating, Wheat (wheat; POSTEMERGENCE, Rate 50 g/ha) | Plant response rating, Sorghum (sorghum; Rate 200 g/ha, POSTEMERGENCE) | Plant response rating, Crabgrass (crabgrass; Rate 200 g/ha, PREEMERGENCE)
0: Plant response rating, Wild oat (wild oat; PREEMERGENCE, Rate 50 g/ha) | Plant response rating, Wheat (wheat; PREEMERGENCE, Rate 50 g/ha) | Plant response rating, Sorghum (sorghum; PREEMERGENCE, Rate 50 g/ha) | Plant response rating, Soybean (soybean [4]; PREEMERGENCE, Rate 50 g/ha) | Plant response rating, Chickweed (chickweed [5]; PREEMERGENCE, Rate 50 g/ha) | Plant response rating, Corn (corn; PREEMERGENCE, Rate 50 g/ha) | Plant response rating, Crabgrass (crabgrass; PREEMERGENCE, Rate 50 g/ha) | Plant response rating, Nutsedge (purple nutsedge; PREEMERGENCE, Rate 50 g/ha) | Plant response rating, Nutsedge (purple nutsedge; Rate 200 g/ha, PREEMERGENCE)
70: Plant response rating, Soybean (soybean [2]; 62 g/ha) | Plant response rating (0 to 100), Umbrella sedge (umbrella sedge; Rate 16 g/ha, under POSTEMERGENCE head (flood test species)) | Plant response rating Downy Brome (downy brome; 250 g/ha) | Plant response rating, Bedstraw (bedstraw; 62 g/ha)
50: Plant response rating (0 to 100), Morningglory (morningglory [1]; Rate 16 g/ha) | Plant response rating (0 to 100), Soybean (soybean [2]; Rate 16 g/ha) | Plant response rating, Chickweed (chickweed [3]; 62 g/ha) | Plant response rating (0 to 100), Chickweed (chickweed [3]; Rate 16 g/ha) | Plant response rating (0 to 100), Bedstraw (bedstraw; Rate 16 g/ha)
95: Plant response rating Umbrella sedge (umbrella sedge; 250 g/ha)
10: Plant response rating (0 to 100), Barley Igri (barley; Rate 4 g/ha) | Plant response rating, Morningglory (morningglory [6]; POSTEMERGENCE, Rate 50 g/ha) | Plant response rating, Morningglory (morningglory [6]; Rate 200 g/ha, POSTEMERGENCE)
6: Plant response rating, Rape (rape; Rate 200 g/ha, POSTEMERGENCE) | Plant response rating, Rape (rape; Rate 200 g/ha, PREEMERGENCE) | Plant response rating, Morningglory (morningglory [6]; Rate 200 g/ha, PREEMERGENCE) | Plant response rating, Nutsedge (purple nutsedge; Rate 200 g/ha, POSTEMERGENCE)
4: Plant response rating, Wild oat (wild oat; Rate 200 g/ha, POSTEMERGENCE) | Plant response rating, Wheat (wheat; Rate 200 g/ha, POSTEMERGENCE) | Plant response rating, Corn (corn; POSTEMERGENCE, Rate 200 g/ha) | Plant response rating, Crabgrass (crabgrass; POSTEMERGENCE, Rate 50 g/ha)
60: Plant response rating Barley Igri (barley; 250 g/ha) | Plant response rating Downy Brome (downy brome; 62 g/ha)
8: Plant response rating, Soybean (soybean [4]; POSTEMERGENCE, Rate 50 g/ha) | Plant response rating, Soybean (soybean [4]; Rate 200 g/ha, POSTEMERGENCE) | Plant response rating, Chickweed (chickweed [5]; Rate 200 g/ha, PREEMERGENCE)
1: Plant response rating, Sorghum (sorghum; Rate 200 g/ha, PREEMERGENCE) | Plant response rating, Rape (rape; PREEMERGENCE, Rate 50 g/ha) | Plant response rating, Morningglory (morningglory [6]; PREEMERGENCE, Rate 50 g/ha)
80: Plant response rating, Soybean (soybean [2]; 250 g/ha) | Plant response rating, Chickweed (chickweed [3]; 250 g/ha)
